ChEMBL document CHEMBL3887009, “Substituted benzoxazoles” (2016)

Assay: Inhibition Assay: To determine the thrombin inhibition of the substances listed above, a biochemical test system is constructed in which the conversion of a thrombin substrate is used for determining the enzymatic activity of human thrombin. Here, thrombin cleaves aminomethylcoumarin, which is measured fluorescently, from the peptic substrate. The determinations are carried out in microtitre plates.Substances to be tested are dissolved in various concentrations in dimethyl sulphoxide and incubated for 15 min with human thrombin (0.06 nmol/l dissolved in 50 mmol/l of Tris buffer [C,C,C-tris(hydroxymethyl)aminomethane], 100 mmol/l of sodium chloride, 0.1% BSA [bovine serum albumin], pH 7.4) at 22° C. The substrate (5 umol/l Boc-Asp(OBzl)-Pro-Arg-AMC from Bachem) is then added. After 30 min of incubation, the sample is excited at a wavelength of 360 nm and the emission is measured at 460 nm. The measured emissions of the test batches with test substance are compared to the control batches without test substance (only dimethyl sulphoxide instead of test substance in dimethyl sulphoxide) and the IC50 values are calculated from the concentration/activity relationships.

With `COc1cc(C(=O)N2CC(C)(CCO)OC[C@H]2C)cc2nc(N[C@H](CF)c3cccc(Cl)c3)oc12` (stereo partly specified) as the molecule, how does the IC50 read?
Its IC50 is 130 nM.
